Reference: PMC12171764 (Computational and Structural Biotechnology Journal, 2025)

Assays:
[1] = biological target: T1, PhGal4E_1 (Pyrococcus horikoshii, UniProt O73960); experiment: X-ray crystal structure, […] Å, crystal soaking; type: binding; conditions: soaked 1-3 min with 10 mM GDP-L-Fuc; active site, NAD+ bound
T1 sequence (O73960 1-318): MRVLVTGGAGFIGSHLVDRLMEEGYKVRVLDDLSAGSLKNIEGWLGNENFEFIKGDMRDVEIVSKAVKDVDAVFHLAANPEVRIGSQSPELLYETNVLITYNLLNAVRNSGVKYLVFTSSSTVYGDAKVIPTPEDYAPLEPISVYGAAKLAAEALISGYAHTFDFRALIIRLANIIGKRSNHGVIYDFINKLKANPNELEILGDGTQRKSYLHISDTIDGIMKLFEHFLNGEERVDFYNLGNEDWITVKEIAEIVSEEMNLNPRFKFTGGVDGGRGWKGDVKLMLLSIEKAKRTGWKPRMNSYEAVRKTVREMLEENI

[2] = biological target: PhGal4E_1 variant Y145F (Pyrococcus horikoshii); experiment: crystal structure

| Molecule | X-ray crystal structure, 2.4 Å, crystal soaking [1] | stoichiometry N [2] |
| --- | --- | --- |
| C[C@@H]1O[C@H](OP(=O)(O)OP(=O)(O)OC[C@H]2O[C@@H](n3cnc4c(=O)[nH]c(N)nc43)[C@H](O)[C@@H]2O)[C@@H](O)[C@H](O)[C@@H]1O [GDP-L-Fuc] | NAD^+ cofactor and GDP-L-Fuc bound in the active site of the WT (PDB ID: 8RDH |  |
| PhGal4E_1 variant Y145F (enzyme) |  | 2 |
